# Test results published in patent publication US20250163091A1, “FUNCTIONALIZED HUMAN MILK OLIGOSACCHARIDES AND METHODS FOR PRODUCING THEM” (The Regents of the University of California, priority 2022, published 2025).
# Test: Assays for synthesizing FDS-LNTβNHCbz (48) from S-LNF-IIβNHCbz (37)
# Format: biochemical
# Settings: 30° C., analyzed by HRMS at 24 hours and 72 hours
# Protocol: Assays for synthesizing FDS-LNTβNHCbz (48) from S-LNF-IIβNHCbz (37). Assays were carried out at 30° C. in a total volume of 10 μL in Tris-HCl buffer (100 mM, pH 7.5) containing (10 mM), CMP-Neu5Ac (15 mM), MgCl2 (20 mM), MBP-Δ50hST6GALNAC V_ext20-Hiss ([…]), MBP-Δ50hST6GALNAC V_V99M-His6, or MBP-Δ50hST6GALNAC V_V99M_ext20-His6. The reactions were analyzed by HRMS at 24 hours and 72 hours. The formation of FDS-LNTβNHCbz (48) was observed (FIGS. 71A and 71B), and the conversion was around 40-50% after 72 h incubation using MBP-Δ50hST6GALNAC V_ext20-His6.
substance,measurement,value
MBP-Δ50hST6GALNAC V_V99M-His6: V99M mutant of recombinant human ST6GALNAC V with N-terminal MBP and C-terminal His6,formation of FDS-LNTβNHCbz (48),formation of the target product was also observed
